Tested on: 922993-354-T-J3-PDC complex spheroids, viability, % test/control
Test: Anticancer human tumor 922993-354-T-J3-PDC patient-derived endometrial carcinoma cell line growth inhibition [CLK]
Settings: for IC50: curve of first compound; for viability, T/C: stronger effect = lower value
How it was run: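 Patient-derived tumor cells grown as complex spheroids with HUVEC endothelial cells and mesenchymal stem cells, treated with drug combinations. Concentrations descend in half-log steps from near clinical Cmax, or from 10 microM if Cmax unknown.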

[1] = second compound 0.0316 µM, first compound 0.0316 µM
[2] = second compound 0.0316 µM, first compound 0.1 µM
[3] = second compound 0.0316 µM, first compound 0.316 µM
[4] = second compound 0.0316 µM, first compound 1 µM
[5] = second compound 0.0316 µM, first compound 3.16 µM
[6] = second compound 0.0316 µM, first compound 10 µM
[7] = second compound 0.1 µM, first compound 0.0316 µM
[8] = second compound 0.1 µM, first compound 0.1 µM
[9] = second compound 0.1 µM, first compound 0.316 µM
[10] = second compound 0.1 µM, first compound 1 µM
[11] = second compound 0.1 µM, first compound 3.16 µM
[12] = second compound 0.1 µM, first compound 10 µM
[13] = second compound 0.316 µM, first compound 0.0316 µM
[14] = second compound 0.316 µM, first compound 0.1 µM
[15] = second compound 0.316 µM, first compound 0.316 µM
[16] = second compound 0.316 µM, first compound 1 µM
[17] = second compound 0.316 µM, first compound 3.16 µM
[18] = second compound 0.316 µM, first compound 10 µM
[19] = second compound 1 µM, first compound 0.0316 µM
[20] = second compound 1 µM, first compound 0.1 µM
[21] = second compound 1 µM, first compound 0.316 µM
[22] = second compound 1 µM, first compound 1 µM
[23] = second compound 1 µM, first compound 3.16 µM
[24] = second compound 1 µM, first compound 10 µM
[25] = second compound 3.16 µM, first compound 0.0316 µM
[26] = second compound 3.16 µM, first compound 0.1 µM
[27] = second compound 3.16 µM, first compound 0.316 µM
[28] = second compound 3.16 µM, first compound 1 µM
[29] = second compound 3.16 µM, first compound 3.16 µM
[30] = second compound 3.16 µM, first compound 10 µM
[31] = second compound 10 µM, first compound 0.0316 µM
[32] = second compound 10 µM, first compound 0.1 µM
[33] = second compound 10 µM, first compound 0.316 µM
[34] = second compound 10 µM, first compound 1 µM
[35] = second compound 10 µM, first compound 3.16 µM
[36] = second compound 10 µM, first compound 10 µM
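Also: spheroids exposed to the agents for 7 days before readout.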

CC(=O)O[C@H]1C(=O)[C@@]2(C)[C@H]([C@H](OC(=O)c3ccccc3)[C@]3(O)C[C@H](OC(=O)[C@H](O)[C@@H](NC(=O)c4ccccc4)c4ccccc4)C(C)=C1C3(C)C)[C@]1(OC(C)=O)CO[C@@H]1C[C@@H]2O + CN1CCN(c2cc(C(=O)Nc3cc4cc(-c5cnn(C)c5)ccc4cn3)ccn2)CC1
IC50 (second compound 0.0316 µM): 2880 nM | IC50 (second compound 0.1 µM): 2370 nM | IC50 (second compound 0.316 µM): < 31.6 nM | IC50 (second compound 1 µM): < 31.6 nM | IC50 (second compound 3.16 µM): < 31.6 nM | IC50 (second compound 10 µM): < 31.6 nM | viability, T/C [1]: 110% | viability, T/C [2]: 126% | viability, T/C [3]: 91.4% | viability, T/C [4]: 95% | viability, T/C [5]: 43.5% | viability, T/C [6]: 36.3% | viability, T/C [7]: 94.8% | viability, T/C [8]: 100% | viability, T/C [9]: 98.3% | viability, T/C [10]: 63.1% | viability, T/C [11]: 50.1% | viability, T/C [12]: 30.3% | viability, T/C [13]: 26% | viability, T/C [14]: 24.9% | viability, T/C [15]: 29.8% | viability, T/C [16]: 19.9% | viability, T/C [17]: 16.1% | viability, T/C [18]: 14.4% | viability, T/C [19]: 0.1% | viability, T/C [20]: 0.47% | viability, T/C [21]: 0.12% | viability, T/C [22]: 0.07% | viability, T/C [23]: 0.06% | viability, T/C [24]: 0.07% | viability, T/C [25]: 0.1% | viability, T/C [26]: 0.79% | viability, T/C [27]: 0.18% | viability, T/C [28]: 0.67% | viability, T/C [29]: 0.76% | viability, T/C [30]: 0.11% | viability, T/C [31]: 0.12% | viability, T/C [32]: 0.14% | viability, T/C [33]: 0.2% | viability, T/C [34]: 0.16% | viability, T/C [35]: 1.02% | viability, T/C [36]: 2.94%

CCc1c2c(nc3ccc(O)cc13)-c1cc3c(c(=O)n1C2)COC(=O)[C@]3(O)CC + CN1CCN(c2cc(C(=O)Nc3cc4cc(-c5cnn(C)c5)ccc4cn3)ccn2)CC1
IC50 (second compound 0.0316 µM): 16.6 nM | IC50 (second compound 0.1 µM): 15.2 nM | IC50 (second compound 0.316 µM): < 3.16 nM | IC50 (second compound 1 µM): < 3.16 nM | IC50 (second compound 3.16 µM): < 3.16 nM | IC50 (second compound 10 µM): < 3.16 nM | viability, T/C (second compound 0.0316 µM, first compound 0.00316 µM): 96.4% | viability, T/C (second compound 0.0316 µM, first compound 0.01 µM): 75.1% | viability, T/C [1]: 16.3% | viability, T/C [2]: 16.1% | viability, T/C [3]: 16.8% | viability, T/C [4]: 24.9% | viability, T/C (second compound 0.1 µM, first compound 0.00316 µM): 84.3% | viability, T/C (second compound 0.1 µM, first compound 0.01 µM): 66.9% | viability, T/C [7]: 14.1% | viability, T/C [8]: 18.8% | viability, T/C [9]: 16.2% | viability, T/C [10]: 32.3% | viability, T/C (second compound 0.316 µM, first compound 0.00316 µM): 27.2% | viability, T/C (second compound 0.316 µM, first compound 0.01 µM): 19.2% | viability, T/C [13]: 9.9% | viability, T/C [14]: 9.85% | viability, T/C [15]: 18.8% | viability, T/C [16]: 15.8% | viability, T/C (second compound 1 µM, first compound 0.00316 µM): 0.1% | viability, T/C (second compound 1 µM, first compound 0.01 µM): 0.13% | viability, T/C [19]: 1.37% | viability, T/C [20]: 0.07% | viability, T/C [21]: 0.87% | viability, T/C [22]: 0.33% | viability, T/C (second compound 3.16 µM, first compound 0.00316 µM): 0.08% | viability, T/C (second compound 3.16 µM, first compound 0.01 µM): 0.17% | viability, T/C [25]: 0.99% | viability, T/C [26]: 1.34% | viability, T/C [27]: 1% | viability, T/C [28]: 2.82% | viability, T/C (second compound 10 µM, first compound 0.00316 µM): 0.12% | viability, T/C (second compound 10 µM, first compound 0.01 µM): 0.14% | viability, T/C [31]: 0.83% | viability, T/C [32]: 0.18% | viability, T/C [33]: 0.59% | viability, T/C [34]: 2.79%

COc1cccc2c1C(=O)c1c(O)c3c(c(O)c1C2=O)CC(O)(C(=O)CO)CC3OC1CC(N)C(O)C(C)O1 (stereo unspecified) + CN1CCN(c2cc(C(=O)Nc3cc4cc(-c5cnn(C)c5)ccc4cn3)ccn2)CC1
IC50 (second compound 0.0316 µM): 2210 nM | IC50 (second compound 0.1 µM): 1840 nM | IC50 (second compound 0.316 µM): < 31.6 nM | IC50 (second compound 1 µM): < 31.6 nM | IC50 (second compound 3.16 µM): < 31.6 nM | IC50 (second compound 10 µM): < 31.6 nM | viability, T/C [1]: 108% | viability, T/C [2]: 119% | viability, T/C [3]: 93.7% | viability, T/C [4]: 66.1% | viability, T/C [5]: 45.2% | viability, T/C [6]: 15.5% | viability, T/C [7]: 123% | viability, T/C [8]: 109% | viability, T/C [9]: 83.3% | viability, T/C [10]: 65% | viability, T/C [11]: 37.8% | viability, T/C [12]: 17.4% | viability, T/C [13]: 31% | viability, T/C [14]: 38% | viability, T/C [15]: 32.9% | viability, T/C [16]: 26.4% | viability, T/C [17]: 13.3% | viability, T/C [18]: 11.1% | viability, T/C [19]: 0.14% | viability, T/C [20]: 1.85% | viability, T/C [21]: 0.14% | viability, T/C [22]: 0.11% | viability, T/C [23]: 0.09% | viability, T/C [24]: 1.32% | viability, T/C [25]: 0.12% | viability, T/C [26]: 0.2% | viability, T/C [27]: 0.67% | viability, T/C [28]: 0.09% | viability, T/C [29]: 1.78% | viability, T/C [30]: 1.28% | viability, T/C [31]: 0.16% | viability, T/C [32]: 0.15% | viability, T/C [33]: 0.16% | viability, T/C [34]: 0.15% | viability, T/C [35]: 1.57% | viability, T/C [36]: 1.56%

Source: PubChem BioAssay AID2060606 (Molecular Pharmacology Branch, DTP, NCI, 2025)
